Measured values published in patent US12415786B2, “Substituted 2-heteroarylaminobenzenes and the salts thereof and their use as herbicidal agents” (Bayer Aktiengesellschaft, priority 2019, dated 2025).

Columns and labels:
Type in all cases: in vivo
Amaranthus retroflexus [1] = experiment: Herbicidal pre-emergence action (greenhouse pots), AMARE; settings: 1280 g/ha, visual scoring after about 3 weeks vs untreated controls
Source text: (§1) In the examples and tables below, the following abbreviations are used: • Undesired Plants/Weeds: • ABUTH: Abutilon theophrasti • AGSTE: Agrostis tenuis • AMARE Amaranthus retroflexus • ECHCG: Echinochloa crus-galli • LOLRI: Lolium rigidum • MATIN: Matricaria inodora • POAAN: Poa annua • SETVI: Setaria viridis • STEME: Stellaria media A. Herbicidal Early Post-Emergence Action Seeds of mono- and dicotyledonous weed plants were placed in plastic pots in sandy loam soil (doubly sown with one species each of mono- or dicotyledonous weed plants per pot) and covered with soil. The compounds of the invention, formulated in the form of wettable powders (WP) or as emulsion concentrates (EC), were then applied onto the surface of the covering soil as aqueous suspension or emulsion with addition of 0.5% additive at a water application rate of 600 liters per hectare (converted). After the treatment, the pots were placed in a greenhouse and kept under good growth conditions for the test plants. After about 3 weeks, the effect of the preparations was scored visually in comparison with untreated controls as percentages. For example, 100% activity=the plants have died, 0% activity=like untreated control plants. Tables C1-C8 below show the effects of selected compounds of the general formula (I) according to Table 1 above on various harmful plants and an application rate corresponding to 1280 g/ha, which were obtained by the experimental procedure mentioned above.

Stellaria media [2] = experiment: Herbicidal post-emergence action (greenhouse pots), STEME; settings: 1280 g/ha, visual rating about 3 weeks after treatment vs untreated controls
Source text: (§2) In the examples and tables below, the following abbreviations are used: • Undesired Plants/Weeds: • ABUTH: Abutilon theophrasti • AGSTE: Agrostis tenuis • AMARE Amaranthus retroflexus • ECHCG: Echinochloa crus-galli • LOLRI: Lolium rigidum • MATIN: Matricaria inodora • POAAN: Poa annua • SETVI: Setaria viridis • STEME: Stellaria media A. Herbicidal Early Post-Emergence Action Seeds of mono- and dicotyledonous weed plants were placed in plastic pots in sandy loam soil (doubly sown with in each case one species of mono- or dicotyledonous weed plants per pot), covered with soil and cultivated in a greenhouse under controlled growth conditions. 2 to 3 weeks after sowing, the test plants were treated at the one-leaf stage. The compounds of the invention, formulated in the form of wettable powders (WP) or as emulsion concentrates (EC), were applied onto the green parts of the plants as aqueous suspension or emulsion with addition of 0.5% additive at a water application rate of 600 liters per hectare (converted). After the test plants had been kept in the greenhouse under optimum growth conditions for about 3 weeks, the activity of the preparations was rated visually in comparison to untreated controls. For example, 100% activity=the plants have died, 0% activity=like untreated control plants. Tables B1-B8 below show the effects of selected compounds of the general formula (I) according to Table 1 above on various harmful plants and an application rate corresponding to 1280 g/ha, which were obtained by the experimental procedure mentioned above.

Poa annua [3] = experiment: Herbicidal early post-emergence action (96-well microtiter plates), POAAN; settings: 1900 g/ha, scored 9 to 12 days after treatment, 100% = plants have died, 0% = like untreated control plants
Source text: (§3) In the examples and tables below, the following abbreviations are used: • Undesired Plants/Weeds: • ABUTH: Abutilon theophrasti • AGSTE: Agrostis tenuis • AMARE Amaranthus retroflexus • ECHCG: Echinochloa crus-galli • LOLRI: Lolium rigidum • MATIN: Matricaria inodora • POAAN: Poa annua • SETVI: Setaria viridis • STEME: Stellaria media A. Herbicidal Early Post-Emergence Action Seeds of monocotyledonous and dicotyledonous weed plants were placed in 96-well microtiter plates in quartz sand and grown in a climatized chamber under controlled growth conditions. 5 to 7 days after sowing, the test plants were treated at the cotyledon stage. The compounds according to the invention, formulated in the form of emulsion concentrates (EC), were applied with a water application rate of the equivalent of 2200 liters per hectare. After the test plants had been left to stand in the climatized chamber for 9 to 12 days under optimum growth conditions, the effect of the preparations was scored visually in comparison to untreated controls. Here, for example, 100% activity=the plants have died, 0% activity=like untreated control plants. Tables A1 to A2 below show the effects of selected compounds of the general formula (I) according to Table 1 above on various harmful plants and an application rate corresponding to 1900 g/ha, which were obtained by the experimental procedure mentioned above.

Setaria viridis [4] = experiment: Herbicidal pre-emergence action (greenhouse pots), SETVI; settings: 1280 g/ha, visual scoring after about 3 weeks vs untreated controls
Source text: as §1

Agrostis tenuis = experiment: Herbicidal early post-emergence action (96-well microtiter plates), AGSTE; settings: 1900 g/ha, scored 9 to 12 days after treatment, 100% = plants have died, 0% = like untreated control plants
Source text: as §3

Poa annua [5] = experiment: Herbicidal post-emergence action (greenhouse pots), POAAN; settings: 1280 g/ha, visual rating about 3 weeks after treatment vs untreated controls
Source text: as §2

Matricaria inodora = experiment: Herbicidal pre-emergence action (greenhouse pots), MATIN; settings: 1280 g/ha, visual scoring after about 3 weeks vs untreated controls
Source text: as §1

Amaranthus retroflexus [6] = experiment: Herbicidal post-emergence action (greenhouse pots), AMARE; settings: 1280 g/ha, visual rating about 3 weeks after treatment vs untreated controls
Source text: as §2

Poa annua [7] = experiment: Herbicidal pre-emergence action (greenhouse pots), POAAN; settings: 1280 g/ha, visual scoring after about 3 weeks vs untreated controls
Source text: as §1

Echinochloa crus-galli [8] = experiment: Herbicidal pre-emergence action (greenhouse pots), ECHCG; settings: 1280 g/ha, visual scoring after about 3 weeks vs untreated controls
Source text: as §1

Stellaria media [9] = experiment: Herbicidal pre-emergence action (greenhouse pots), STEME; settings: 1280 g/ha, visual scoring after about 3 weeks vs untreated controls
Source text: as §1

Abutilon theophrasti = experiment: Herbicidal post-emergence action (greenhouse pots), ABUTH; settings: 1280 g/ha, visual rating about 3 weeks after treatment vs untreated controls
Source text: as §2

Setaria viridis [10] = experiment: Herbicidal post-emergence action (greenhouse pots), SETVI; settings: 1280 g/ha, rated after about 3 weeks, 100% = plants have died, 0% = like untreated control plants
Source text: as §2

Echinochloa crus-galli [11] = experiment: Herbicidal post-emergence action (greenhouse pots), ECHCG; settings: 1280 g/ha, rated after about 3 weeks, 100% = plants have died, 0% = like untreated control plants
Source text: as §2

Row | SMILES | herbicidal activity AMARE (Amaranthus retroflexus [1]) [%] | herbicidal activity STEME (Stellaria media [2]) [%] | POAAN (herbicidal activity, scored visually in comparison to untreated controls) (Poa annua [3]) [%] | herbicidal activity SETVI (Setaria viridis [4]) [%] | AGSTE (herbicidal activity, scored visually in comparison to untreated controls) (Agrostis tenuis) [%] | herbicidal activity POAAN (Poa annua [5]) [%] | herbicidal activity MATIN (Matricaria inodora) [%] | herbicidal activity AMARE (Amaranthus retroflexus [6]) [%] | herbicidal activity POAAN (Poa annua [7]) [%] | herbicidal activity ECHCG (Echinochloa crus-galli [8]) [%] | herbicidal activity STEME (Stellaria media [9]) [%] | herbicidal activity ABUTH (Abutilon theophrasti) [%] | SETVI (herbicidal activity, rated visually in comparison to untreated controls) (Setaria viridis [10]) [%] | ECHCG (herbicidal activity, rated visually in comparison to untreated controls) (Echinochloa crus-galli [11]) [%]
1 | Fc1ccc(Oc2c(I)cccc2Nc2ncc(Cl)cn2)cc1 [Example 1-372] | 100 | 90 | 100 | 100 | 100 | 100 |  |  |  |  |  |  |  | 
2 | O=[N+]([O-])c1cccc(Nc2ncc(Cl)cn2)c1Oc1ccc(F)cc1 [Example 1-350] | 100 |  | 100 |  | 80 | 100 | 100 | 100 | 100 |  |  |  |  | 
3 | Cc1cccc(Nc2ncc(Cl)cn2)c1Oc1ccc(F)cc1 [Example 1-239] |  | 100 | 100 |  | 80 | 100 | 100 | 100 | 100 |  |  |  |  | 
4 | N#Cc1cccc(Nc2ncccn2)c1Oc1ccc(C(F)(F)F)cc1 [Example 1-260] | 100 | 90 | 100 | 100 | 100 |  | 90 | 100 | 90 | 90 | 100 |  |  | 
5 | N#Cc1cccc(Nc2ncc(Cl)cn2)c1Oc1ccc(C(F)(F)F)cc1 [Example 1-298] | 100 | 100 | 80 | 100 | 80 | 90 | 90 | 100 | 100 |  | 100 | 90 | 90 | 
6 | N#Cc1cccc(Nc2ncc(F)cn2)c1Oc1ccc(F)cc1F [Example 1-270] | 100 | 100 | 80 | 100 | 80 |  | 100 | 100 | 100 | 100 | 100 | 90 | 90 | 90
7 | Fc1ccc(Oc2ccccc2Nc2ncc(Cl)cn2)cc1 [Example 1-337] | 90 |  | 100 |  | 100 |  |  | 90 | 100 |  |  | 90 |  | 90
8 | N#Cc1cccc(Nc2ncccn2)c1Oc1cccc(F)c1 [Example 1-247] | 100 |  |  | 100 | 80 |  |  | 100 | 100 | 90 | 100 |  |  | 
9 | N#Cc1cccc(Nc2ncc(Cl)cn2)c1Oc1ccc(F)cc1F [Example 1-289] | 100 | 100 | 80 | 100 | 80 |  | 100 | 100 | 100 |  | 100 | 90 | 90 | 100
10 | N#Cc1cccc(Nc2ncc(F)cn2)c1Oc1ccc(Cl)cc1F [Example 1-275] | 100 | 100 | 100 | 100 | 80 |  | 90 | 100 | 100 | 90 | 100 | 90 | 90 | 90
11 | N#Cc1cccc(Nc2ncc(Cl)cn2)c1Oc1ccc(Cl)cc1 [Example 1-288] | 100 |  | 80 | 100 | 80 | 100 |  | 100 | 100 | 90 | 100 | 90 | 90 | 100
12 | CC(=O)N(C)c1cccc(Nc2ncc(Cl)cn2)c1Oc1ccc(F)cc1 [Example 1-369] | 100 |  | 80 | 100 | 80 | 100 |  | 100 |  |  | 100 |  |  | 
13 | N#Cc1cccc(Nc2ncc(F)cn2)c1Oc1cccc(F)c1 [Example 1-266] | 100 | 100 | 100 | 100 | 80 |  | 100 | 100 | 100 | 90 | 100 | 100 |  | 100
